According to patent US9980943B2, “Methods of treating muscular dystrophy” (BOARD OF REGENTS OF THE NEVADA SYSTEM OF HIGHER EDUCATION, …, priority 2013, dated 2018):

Columns and labels:
Format in all cases: cell-based, mouse
[1] = system: β-galactosidase in CMV-LacZ C2C12 myotubes; experiment: CMV-LacZ secondary screen in C2C12 myotubes (β-Gal stabilizing assay); conditions: C2C12 CMV-LacZ myotubes, fold relative to DMSO
How it was run: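 A secondary screen identifies compounds that stabilize β-gal independently of the native promoter, using CMV-LacZ C2C12 cells. Curves span 0.5–40 μM at six levels, in duplicate.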

[2] = system: α7 integrin (LacZ reporter in α7βgal+/− myoblasts); experiment: Myoblast α7+/LacZ integrin FDG assay (Burkin assay in myoblasts, 96-well); conditions: α7+/LacZ myoblasts, 96-well
[3] = system: α7 integrin (LacZ reporter in α7+/LacZ myotubes); experiment: Myotube α7 integrin FDG assay (Burkin assay in myotubes, 96-well); conditions: myotubes
[4] = system: β-galactosidase in CMV-LacZ C2C12 myoblasts; experiment: CMV-LacZ secondary screen in C2C12 myoblasts (β-Gal stabilizing assay); conditions: CMV-LacZ C2C12 myoblasts
How it was run: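 Stable CMV-LacZ C2C12 clone; six-point curve 0.5–40 μM; duplicates.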

Compound	CMV-LACZ in Myotubes, signal relative to DMSO ([1]; 0.5 uM)	CMV-LACZ in Myotubes, signal relative to DMSO ([1]; 1 uM)	CMV-LACZ in Myotubes, signal relative to DMSO ([1]; 5 uM)	CMV-LACZ in Myotubes, signal relative to DMSO ([1]; 10 uM)	CMV-LACZ in Myotubes, signal relative to DMSO ([1]; 20 uM)	CMV-LACZ in Myotubes, signal relative to DMSO ([1]; 40 uM)	Burkin Assay in Myoblasts, signal relative to DMSO ([2]; 0.5 uM)	Burkin Assay in Myoblasts, signal relative to DMSO ([2]; 1 uM)	Burkin Assay in Myoblasts, signal relative to DMSO ([2]; 5 uM)	Burkin Assay in Myoblasts, signal relative to DMSO ([2]; 10 uM)	Burkin Assay in Myoblasts, signal relative to DMSO ([2]; 20 uM)	Burkin Assay in Myoblasts, signal relative to DMSO ([2]; 40 uM)	Burkin Assay in Myotubes, α7 integrin LacZ reporter signal relative to DMSO ([3]; 0.5 uM)	Burkin Assay in Myotubes, α7 integrin LacZ reporter signal relative to DMSO ([3]; 1 uM)	Burkin Assay in Myotubes, α7 integrin LacZ reporter signal relative to DMSO ([3]; 5 uM)	Burkin Assay in Myotubes, α7 integrin LacZ reporter signal relative to DMSO ([3]; 10 uM)	Burkin Assay in Myotubes, α7 integrin LacZ reporter signal relative to DMSO ([3]; 20 uM)	Burkin Assay in Myotubes, α7 integrin LacZ reporter signal relative to DMSO ([3]; 40 uM)	CMV-LACZ in Myoblasts (β-galactosidase activity relative to DMSO) ([4]; 0.5 uM)	CMV-LACZ in Myoblasts (β-galactosidase activity relative to DMSO) ([4]; 1 uM)	further results
N/C(=N\OC(=O)c1cccc(C(F)(F)F)c1)c1cnccn1 [MLS001098105-01]	0.9248	1.2543	0.9211	1.3183	0.9671	1.2553	0.9449	1.029	0.9936	0.974	1.075	1.135	1.052	1.053	0.916	0.8354	0.8142	0.8459	1.4689	0.8054	CMV-LACZ in Myoblasts (β-galactosidase activity relative to DMSO) ([4]; 5 uM): 0.9282; CMV-LACZ in Myoblasts (β-galactosidase activity relative to DMSO) ([4]; 10 uM): 0.9421; CMV-LACZ in Myoblasts (β-galactosidase activity relative to DMSO) ([4]; 20 uM): 1.0381; CMV-LACZ in Myoblasts (β-galactosidase activity relative to DMSO) ([4]; 40 uM): 0.8704
Cn1cc(CN2CCC(C(=O)Nc3cccc(-c4cscn4)c3)CC2)cn1 [MLS001105912-01]	1.1391	0.9618	0.9313	1.0857	1.1910	1.8130	1.162	1.057	1.029	1.246	0.6025	0.4631	0.9483	1.061	0.9467	1.1322	0.8299	1.003	1.0725	1.0321	CMV-LACZ in Myoblasts (β-galactosidase activity relative to DMSO) ([4]; 5 uM): 1.0003; CMV-LACZ in Myoblasts (β-galactosidase activity relative to DMSO) ([4]; 10 uM): 0.9597; CMV-LACZ in Myoblasts (β-galactosidase activity relative to DMSO) ([4]; 20 uM): 0.5323; CMV-LACZ in Myoblasts (β-galactosidase activity relative to DMSO) ([4]; 40 uM): 0.3873
CCC(CC)C(=O)Nc1c(C(=O)N2CCN(c3ccccc3)CC2)oc2ccccc12 [MLS001116079-01]	1.3543	0.8152	1.0227	1.1374	0.9063	1.0811	1.03	1.087	1.025	0.9749	1.244	1.34	0.9524	0.9502	0.9559	0.9012	0.9027	0.9686	1.0950	1.0492	CMV-LACZ in Myoblasts (β-galactosidase activity relative to DMSO) ([4]; 5 uM): 0.9306; CMV-LACZ in Myoblasts (β-galactosidase activity relative to DMSO) ([4]; 10 uM): 1.0228; CMV-LACZ in Myoblasts (β-galactosidase activity relative to DMSO) ([4]; 20 uM): 1.0448; CMV-LACZ in Myoblasts (β-galactosidase activity relative to DMSO) ([4]; 40 uM): 0.9078
Cc1ccc(NS(=O)(=O)c2ccc(-c3ccc(=O)[nH]n3)o2)c(C)c1 [MLS001116535-01]	1.2552	0.8771	1.0648	1.2856	0.9800	1.0011	1.092	1.111	0.998	0.9386	1.239	1.267	0.95	1.003	0.8929	0.8553	0.8993	0.8366	1.0167	1.1779	CMV-LACZ in Myoblasts (β-galactosidase activity relative to DMSO) ([4]; 5 uM): 1.0944; CMV-LACZ in Myoblasts (β-galactosidase activity relative to DMSO) ([4]; 10 uM): 1.0580; CMV-LACZ in Myoblasts (β-galactosidase activity relative to DMSO) ([4]; 20 uM): 1.1815; CMV-LACZ in Myoblasts (β-galactosidase activity relative to DMSO) ([4]; 40 uM): 1.1263
Cc1ccccc1NC(=O)c1ccc2c(O)c(S(=O)(=O)c3ccccc3)c(=O)[nH]c2c1 [MLS001122698-01]	1.0019	1.0133	1.2038	1.1482	1.0340	1.0110	0.9829	0.8573	1.008	0.9652	0.9061	0.8389	0.9131	0.9039	0.9575	1.03	0.9209	0.8572	1.1513	1.1003	CMV-LACZ in Myoblasts (β-galactosidase activity relative to DMSO) ([4]; 5 uM): 0.7759; CMV-LACZ in Myoblasts (β-galactosidase activity relative to DMSO) ([4]; 10 uM): 0.8608; CMV-LACZ in Myoblasts (β-galactosidase activity relative to DMSO) ([4]; 20 uM): 1.0404; CMV-LACZ in Myoblasts (β-galactosidase activity relative to DMSO) ([4]; 40 uM): 1.0639
COc1cc(C=O)ccc1OCC(=O)Nc1ccc2c(c1)OCO2 [MLS001123876-01]	0.8962	1.4943	0.9002	0.9279	0.9880	1.0300	1.041	0.8264	1.44	1.095	0.9339	0.8844	0.866	0.8193	1.1689	1.232	0.7114	1.003	0.8260	1.0263	CMV-LACZ in Myoblasts (β-galactosidase activity relative to DMSO) ([4]; 5 uM): 0.9251; CMV-LACZ in Myoblasts (β-galactosidase activity relative to DMSO) ([4]; 10 uM): 0.9871; CMV-LACZ in Myoblasts (β-galactosidase activity relative to DMSO) ([4]; 20 uM): 0.9618; CMV-LACZ in Myoblasts (β-galactosidase activity relative to DMSO) ([4]; 40 uM): 0.7333
